In one data set the target is ALK1/ACVRL1 (Homo sapiens, UniProt P37023). Nature of the data set: Kinase assay (33P-ATP filter-binding), ALK1. It is filed as biochemical. The procedure:
(§1) The kinase assays were carried out briefly as follows. Substrate was prepared in Base Reaction Buffer (20 mM Hepes (pH 7.5), 10 mM MgCl2, 1 mM EGTA, 0.02% Brij35, 0.02 mg/ml BSA, 0.1 mM Na3VO4, 2 mM DTT, 1% DMSO). The indicated kinases was delivered into the substrate solution and allowed to gently mix. Next, the specific compound was delivered in DMSO into the kinase mixture by Acoustic technology (Echo550; nanoliter range), and allowed to incubate for 20 minutes at room temperature. Next, ^33P-ATP was delivered into the reaction mixture to initiate the reaction and allowed to incubate at room temperature. After 2 hours, the reactions were spotted onto P81 ion exchange paper and the kinase activity is detected by the filter-binding method.

Another data set has as its target T1, ALK2/ACVR1 (Homo sapiens, UniProt Q04771).
T1 sequence (Q04771 21-509): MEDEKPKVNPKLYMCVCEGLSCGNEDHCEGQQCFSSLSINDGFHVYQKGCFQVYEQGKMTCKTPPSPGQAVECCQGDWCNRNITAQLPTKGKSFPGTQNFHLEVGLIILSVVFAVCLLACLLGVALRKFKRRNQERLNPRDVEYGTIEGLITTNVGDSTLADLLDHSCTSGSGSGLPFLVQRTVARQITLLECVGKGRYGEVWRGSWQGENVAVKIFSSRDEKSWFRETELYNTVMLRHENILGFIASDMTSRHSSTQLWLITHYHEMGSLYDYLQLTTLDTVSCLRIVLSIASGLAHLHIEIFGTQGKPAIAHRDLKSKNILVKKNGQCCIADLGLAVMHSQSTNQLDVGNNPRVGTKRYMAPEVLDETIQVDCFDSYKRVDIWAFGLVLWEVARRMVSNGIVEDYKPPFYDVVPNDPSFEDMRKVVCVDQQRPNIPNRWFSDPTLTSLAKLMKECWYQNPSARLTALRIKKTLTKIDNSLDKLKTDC
Nature of the data set: Kinase assay (33P-ATP filter-binding), ALK2. The format is biochemical. The procedure:
as §1

In a further data set the target is T2, ALK2 (Q207D) (Homo sapiens, UniProt Q04771, Q207D).
T2 sequence (Q04771 21-509 Q207D): T1 sequence (Q04771 21-509) with Q187D
As to the kind of experiment: Kinase assay (33P-ATP filter-binding), ALK2 Q207D. The format is biochemical. The settings on record: Q207D mutant, 20 mM; read-out: Kinase Selectivity ALK2 (Q207D, 20 mM). The procedure:
as §1

The next data set addresses T3, ALK2 (R206H) (Homo sapiens, UniProt Q04771, R206H).
T3 sequence (Q04771 21-509 R206H): T1 sequence (Q04771 21-509) with R186H
Nature of the data set: Kinase assay (33P-ATP filter-binding), ALK2 R206H. The format is biochemical. The settings on record: R206H mutant, 20 mM; read-out: Kinase Selectivity ALK2 (R206H, 20 mM). How it is done:
as §1

Another data set deals with ALK3/BMPR1A (Homo sapiens, UniProt P36894). As to the kind of experiment: Kinase assay (33P-ATP filter-binding), ALK3. It is filed as biochemical. The procedure:
as §1

Data set [1] can be described thus: Intrinsic clearance, human. It is filed as in vitro ADME. The conditions noted are these: human.
A short description of data set [2]: Intrinsic clearance, mouse. The format is in vitro ADME. The conditions noted are these: mouse.
Another data set in a line: Protein binding, human. It is filed as in vitro ADME.
The nature of another data set: Protein binding, mouse. The format is in vitro ADME.
The mark [3] stands for this setting: read-out: Kinase Selectivity ALK1/ACVRL1.
Where [4] appears, read: 20 mM, read-out: Kinase Selectivity ALK2/ACVR1 (20 mM).
The mark [5] stands for this setting: 1 mM, read-out: Kinase Selectivity ALK3/BMPR1A (1 mM).
Where [6] appears, read: CL-Hep, value in parentheses, read-out: Intrinsic Clearance Human (CL-Hep).
Setting [7] is: read-out: Intrinsic Clearance Human.
Setting [8] is: CL-Hep, value in parentheses, read-out: Intrinsic Clearance Mouse (CL-Hep).
[9] abbreviates: read-out: Intrinsic Clearance Mouse.

Positions count from the first letter of the chain named. Where two headings read alike, the source gives them in different places. A value given as a limit tells only on which side of the number the result lay.

Sequence of ALK1/ACVRL1 (P37023 22-503): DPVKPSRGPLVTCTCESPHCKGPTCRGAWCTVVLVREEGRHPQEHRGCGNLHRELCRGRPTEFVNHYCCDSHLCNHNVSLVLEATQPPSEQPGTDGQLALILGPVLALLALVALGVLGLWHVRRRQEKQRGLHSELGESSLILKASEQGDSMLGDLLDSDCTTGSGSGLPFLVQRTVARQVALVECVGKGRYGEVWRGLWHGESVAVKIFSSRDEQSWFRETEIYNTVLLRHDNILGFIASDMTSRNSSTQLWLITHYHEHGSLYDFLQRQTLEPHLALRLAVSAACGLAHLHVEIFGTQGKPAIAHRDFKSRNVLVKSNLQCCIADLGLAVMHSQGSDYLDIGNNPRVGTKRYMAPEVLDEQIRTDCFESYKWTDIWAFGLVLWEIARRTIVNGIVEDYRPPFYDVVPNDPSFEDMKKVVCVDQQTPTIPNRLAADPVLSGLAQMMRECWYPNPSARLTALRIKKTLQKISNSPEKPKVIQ
Sequence of ALK3/BMPR1A (P36894 24-532): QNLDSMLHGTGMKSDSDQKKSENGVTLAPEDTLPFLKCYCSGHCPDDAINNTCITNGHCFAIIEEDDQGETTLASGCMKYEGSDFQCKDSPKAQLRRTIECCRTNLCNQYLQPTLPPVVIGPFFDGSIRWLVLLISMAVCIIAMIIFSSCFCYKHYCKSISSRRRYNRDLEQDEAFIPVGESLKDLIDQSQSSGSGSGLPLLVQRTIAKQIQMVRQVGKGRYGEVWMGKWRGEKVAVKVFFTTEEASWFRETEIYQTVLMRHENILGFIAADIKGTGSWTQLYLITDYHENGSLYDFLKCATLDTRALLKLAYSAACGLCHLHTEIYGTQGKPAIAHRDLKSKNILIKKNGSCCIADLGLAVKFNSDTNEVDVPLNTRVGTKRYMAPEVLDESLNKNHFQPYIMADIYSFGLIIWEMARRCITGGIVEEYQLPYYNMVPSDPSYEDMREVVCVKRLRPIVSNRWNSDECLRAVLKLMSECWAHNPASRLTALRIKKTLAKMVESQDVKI

On to `Cc1cc(-c2cnc3cc(-c4ccc(C5C[C@@H](C)N[C@@H](C)C5)cc4)ccn23)c2cc(F)cc(F)c2n1` (stereo partly shown) [Compound 1], for which the IC50 on ALK1/ACVRL1 (setting [3]) is 880 nM; at ALK2/ACVR1 (setting [4]), 54.2 nM; at ALK2 (Q207D), 68.1 nM; at ALK2 (R206H) it was 60.9 nM; on ALK3/BMPR1A (setting [5]), 28.5 nM.
As to `Cc1cc(-c2cnc3cc(-c4ccc(N5CCCC6(CCCN6)C5)cc4)ccn23)c2cc(F)cc(F)c2n1` (stereo not shown) [Compound 2], the IC50 on ALK1/ACVRL1 (setting [3]) was 936 nM; on ALK2/ACVR1 (setting [4]), 147 nM; at ALK2 (Q207D) it was 114 nM; at ALK2 (R206H) it was 128 nM; at ALK3/BMPR1A (setting [5]), 45 nM.
For `Cc1cc(-c2cnc3cc(-c4ccc(N5CCC6(CCCNC6)CC5)cc4)ccn23)c2cc(F)cc(F)c2n1` [Compound 3], in that order: 10300 nM, 1090 nM, 999 nM, 1120 nM and 332 nM.
On the same counts, the results for `Cc1cc(-c2cnc3cc(-c4ccc(N5CCNC6(CCC6)C5)cc4)ccn23)c2cc(F)cc(F)c2n1` [Compound 4] are 386 nM, 29 nM, 24 nM, 25.5 nM and 2.52 nM.
For `Cc1cc(-c2cnc3cc(-c4ccc(N5CCC6(CCNCC6)C5)cc4)ccn23)c2cc(F)cc(F)c2n1` [Compound 5], in that order: 35300 nM, 2370 nM, 1740 nM, 2510 nM and 1330 nM.
For `Cc1cc(-c2cnc3cc(-c4ccc(N5CCC6(CCCNC6)C5)cc4)ccn23)c2cc(F)cc(F)c2n1` (stereo not shown) [Compound 6], the IC50 at ALK1/ACVRL1 (setting [3]) is 3460 nM; on ALK2/ACVR1 (setting [4]), 171 nM; at ALK2 (Q207D), 200 nM; on ALK2 (R206H), 218 nM; at ALK3/BMPR1A (setting [5]), 19.9 nM.
For `Cc1cc(-c2cnc3cc(-c4ccc(N5CCC6(CCNC6)CC5)cc4)ccn23)c2cc(F)cc(F)c2n1` [Compound 7], in that order: 5950 nM, 770 nM, 745 nM, 1070 nM and 434 nM.
On to `Cc1cc(-c2cnc3cc(-c4ccc(N5CCC6(CCC6)C5)cc4)ccn23)c2cc(F)cc(F)c2n1` [Compound 8], for which the IC50 at ALK1/ACVRL1 (setting [3]) is more than 50000 nM; at ALK2/ACVR1 (setting [4]), more than 50000 nM; on ALK2 (Q207D) it was more than 50000 nM; at ALK2 (R206H) it was more than 50000 nM; on ALK3/BMPR1A (setting [5]), 43700 nM.
Turning to `Cc1cc(-c2cnc3cc(-c4ccc(N5CCC6(CCC6)CC5)cc4)ccn23)c2cc(F)cc(F)c2n1` [Compound 9], the IC50 is more than 50000 nM at ALK1/ACVRL1 (setting [3]); more than 50000 nM on ALK2/ACVR1 (setting [4]); more than 50000 nM on ALK2 (Q207D); more than 50000 nM at ALK2 (R206H); 40900 nM on ALK3/BMPR1A (setting [5]).
For the molecule `Cc1cc(-c2cnc3cc(-c4ccc(C5COCCCN5)cc4)ccn23)c2cc(F)ccc2n1` (stereo not shown) [Compound 10], the IC50 on ALK1/ACVRL1 (setting [3]), at ALK2/ACVR1 (setting [4]), at ALK2 (Q207D), at ALK2 (R206H) and on ALK3/BMPR1A (setting [5]) was less than 5.1 nM throughout. Moreover, the CLint scaled was found to be 17.4 mL/min/kg in [1] (setting [6]), 139 mL/min/kg in [1] (setting [7]), 47.6 mL/min/kg in data set [2] (setting [8]) and 101 mL/min/kg in data set [2] (setting [9]). Moreover, the “Protein Binding (% Free) Human” value in “Protein binding, human” was 2.39 % Free. In addition, in the data set “Protein binding, mouse”, the “Protein Binding (% Free) Mouse” value was 1.91 % Free.
For the molecule `Cc1cc(-c2cnc3cc(-c4ccc(C5COCCN5)cc4)ccn23)c2cc(F)ccc2n1` (stereo not shown) [Compound 11], the IC50 is 23.5 nM at ALK1/ACVRL1 (setting [3]) and less than 5.1 nM at ALK3/BMPR1A (setting [5]). In addition, in data set [1] (setting [6]), the CLint scaled stood at 17.4 mL/min/kg. In addition, the “Protein Binding (% Free) Human” value in “Protein binding, human” was determined as 1.52 % Free. In addition, in the data set “Protein binding, mouse”, the “Protein Binding (% Free) Mouse” value is on record as 3.23 % Free.
On to `Cc1cc(-c2cnc3cc(-c4ccc(C5COCCCN5)cc4)ccn23)c2cc(F)cc(F)c2n1` (stereo not shown) [Compound 13], for which the IC50 on ALK1/ACVRL1 (setting [3]) is 16 nM; on ALK2/ACVR1 (setting [4]) it was less than 5.1 nM; at ALK2 (Q207D) it was less than 5.1 nM; on ALK2 (R206H), less than 5.1 nM; at ALK3/BMPR1A (setting [5]) it was less than 5.1 nM. The CLint scaled in data set [1] (setting [6]) was 16.6 mL/min/kg; in data set [1] (setting [7]), 97.2 mL/min/kg; in [2] (setting [8]) it was less than 32.9 mL/min/kg; in [2] (setting [9]) it was less than 49.5 mL/min/kg. Besides, the “Protein Binding (% Free) Human” value in the data set “Protein binding, human” stood at 1.85 % Free. For the same molecule, in the data set “Protein binding, mouse”, the “Protein Binding (% Free) Mouse” value was found to be 2.3 % Free.
Take `Cc1cc(-c2cnc3cc(-c4ccc(C5COC(C)CN5)cc4)ccn23)c2ccccc2n1` (stereo not shown) [Compound 14]: the IC50 at ALK1/ACVRL1 (setting [3]), on ALK2/ACVR1 (setting [4]), on ALK2 (Q207D), on ALK2 (R206H) and on ALK3/BMPR1A (setting [5]) was less than 5.1 nM each time. Moreover, the CLint scaled was 16.5 mL/min/kg in data set [1] (setting [6]), 93 mL/min/kg in [1] (setting [7]), 50.3 mL/min/kg in data set [2] (setting [8]) and 114 mL/min/kg in data set [2] (setting [9]). Moreover, the “Protein Binding (% Free) Human” value in “Protein binding, human” amounted to 0.76 % Free. For the same molecule, the “Protein Binding (% Free) Mouse” value in “Protein binding, mouse” was 1.6 % Free.
Consider `Cc1cc(-c2cnc3cc(-c4ccc(C5COCCN5)cc4)ccn23)c2ccccc2n1` (stereo not shown) [Compound 21], for which the IC50 at ALK1/ACVRL1 (setting [3]) and on ALK3/BMPR1A (setting [5]) was less than 5.1 nM each time. The CLint scaled in [1] (setting [6]) came to 17.5 mL/min/kg. Also, the “Protein Binding (% Free) Human” value in “Protein binding, human” is reported as 3.05 % Free. For the same molecule, in “Protein binding, mouse”, the “Protein Binding (% Free) Mouse” value came out at 6.24 % Free.
For `c1cc(-c2cnc3cc(-c4ccc(C5CNCCN5)cc4)ccn23)ccn1` (stereo not shown) [Compound 30], the IC50 on ALK1/ACVRL1 (setting [3]) amounted to 447 nM; on ALK2/ACVR1 (setting [4]), 68.8 nM; on ALK2 (Q207D) it was 35 nM; at ALK2 (R206H), 96.7 nM; at ALK3/BMPR1A (setting [5]), 55.1 nM.
For the molecule `c1ncc2scc(-c3cnc4cc(-c5ccc(C6CNCCN6)cc5)ccn34)c2n1` (stereo not shown) [Compound 35], the IC50 was 14200 nM on ALK1/ACVRL1 (setting [3]); 157 nM at ALK2/ACVR1 (setting [4]); 65.8 nM on ALK2 (Q207D); 214 nM at ALK2 (R206H); 9450 nM at ALK3/BMPR1A (setting [5]).
Turning to `O=S(=O)(F)Oc1ccc(-c2cnc3cc(-c4ccc(N5CCOCC5)cc4)ccn23)c2ccccc12` [Compound 38], the IC50 on ALK1/ACVRL1 (Kinase Selectivity ALK1/ACVRL1) is more than 30000 nM; at ALK2/ACVR1, more than 30000 nM; on ALK2 (Q207D) it was 10300 nM; on ALK2 (R206H), 15000 nM; on ALK3/BMPR1A, 23100 nM.
